Measurements reported in US20230416248A1, “COMPOUNDS AND USES THEREOF” (Foghorn Therapeutics Inc., priority 2020, published 2023).
Read-outs that look alike come from different tables or passages of the source.

Tests used:
[1] = molecular target: T1, BRM (Homo sapiens, UniProt P51531); assay: ATPase catalytic activity of BRM, ADP-Glo in vitro biochemical assay; details: for IC50: 30 nM BRM, 400 μM ATP
T1 construct: made in house; host or cells: High Five insect cells
Method in brief: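 Recombinant BRM (30 nM) hydrolysed 400 μM ATP with 20 nM salmon sperm DNA in pH 8 Tris buffer containing 20 mM MgCl2, 50 mM NaCl, 0.1% Tween-20 and 1 mM DTT, 1 h at room temperature. ADP formed was quantified by ADP-Glo luminescence.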

[2] = molecular target: T2, BRG-1 (Homo sapiens, UniProt P51532); assay: ATPase catalytic activity of BRG-1, ADP-Glo in vitro biochemical assay; details: 30 nM BRG-1, 400 μM ATP, read-out: BRG1 IC50
T2 construct: made in house; host or cells: High Five insect cells
Method in brief: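 Signal reflects ADP produced by the enzyme, quantified as luminescence after unused ATP is cleared and ADP is reconverted to ATP for the luciferase reaction; both steps run at room temperature, 40 and 60 min respectively.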

[3] = ATPase catalytic activity, ADP-Glo

T1 sequence (P51531 whole entry): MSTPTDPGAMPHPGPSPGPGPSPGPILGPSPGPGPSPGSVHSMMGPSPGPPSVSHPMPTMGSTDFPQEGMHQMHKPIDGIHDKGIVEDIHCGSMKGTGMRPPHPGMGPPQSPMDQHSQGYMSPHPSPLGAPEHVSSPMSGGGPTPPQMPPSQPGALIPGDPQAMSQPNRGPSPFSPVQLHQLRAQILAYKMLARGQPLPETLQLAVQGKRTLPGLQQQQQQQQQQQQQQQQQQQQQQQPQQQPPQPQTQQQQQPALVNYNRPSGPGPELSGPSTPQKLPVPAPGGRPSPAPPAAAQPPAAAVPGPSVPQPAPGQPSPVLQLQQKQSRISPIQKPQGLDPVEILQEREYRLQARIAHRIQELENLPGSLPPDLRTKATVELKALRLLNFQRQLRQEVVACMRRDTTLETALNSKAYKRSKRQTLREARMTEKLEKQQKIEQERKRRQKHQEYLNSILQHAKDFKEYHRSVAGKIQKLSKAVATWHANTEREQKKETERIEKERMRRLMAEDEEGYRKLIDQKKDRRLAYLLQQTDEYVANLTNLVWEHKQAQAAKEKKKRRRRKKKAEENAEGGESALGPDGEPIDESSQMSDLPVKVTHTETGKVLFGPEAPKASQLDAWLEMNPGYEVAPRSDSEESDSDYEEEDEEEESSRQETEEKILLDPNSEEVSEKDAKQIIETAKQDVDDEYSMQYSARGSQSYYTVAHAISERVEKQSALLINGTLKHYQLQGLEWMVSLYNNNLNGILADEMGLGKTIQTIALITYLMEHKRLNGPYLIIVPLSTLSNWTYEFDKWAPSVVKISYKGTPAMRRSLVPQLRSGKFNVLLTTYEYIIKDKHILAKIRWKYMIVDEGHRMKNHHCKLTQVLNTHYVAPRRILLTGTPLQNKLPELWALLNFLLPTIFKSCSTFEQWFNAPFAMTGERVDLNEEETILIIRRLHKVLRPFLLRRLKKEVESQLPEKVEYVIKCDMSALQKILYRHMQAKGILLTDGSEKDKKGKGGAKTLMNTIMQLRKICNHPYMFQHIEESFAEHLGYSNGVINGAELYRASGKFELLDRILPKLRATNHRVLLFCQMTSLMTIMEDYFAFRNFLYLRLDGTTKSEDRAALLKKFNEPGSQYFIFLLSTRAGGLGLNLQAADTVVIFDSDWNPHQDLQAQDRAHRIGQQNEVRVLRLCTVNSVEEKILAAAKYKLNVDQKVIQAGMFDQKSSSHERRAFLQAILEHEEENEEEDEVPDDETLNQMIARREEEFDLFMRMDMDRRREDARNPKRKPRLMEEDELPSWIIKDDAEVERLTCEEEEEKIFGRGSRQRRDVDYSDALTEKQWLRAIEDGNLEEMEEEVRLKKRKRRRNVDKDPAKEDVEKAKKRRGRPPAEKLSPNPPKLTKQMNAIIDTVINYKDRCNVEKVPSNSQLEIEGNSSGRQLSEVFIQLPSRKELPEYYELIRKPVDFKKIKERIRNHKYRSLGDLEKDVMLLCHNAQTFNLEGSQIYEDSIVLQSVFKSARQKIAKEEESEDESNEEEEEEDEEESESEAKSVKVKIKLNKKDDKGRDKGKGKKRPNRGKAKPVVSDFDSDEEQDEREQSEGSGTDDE
T2 sequence (P51532 whole entry): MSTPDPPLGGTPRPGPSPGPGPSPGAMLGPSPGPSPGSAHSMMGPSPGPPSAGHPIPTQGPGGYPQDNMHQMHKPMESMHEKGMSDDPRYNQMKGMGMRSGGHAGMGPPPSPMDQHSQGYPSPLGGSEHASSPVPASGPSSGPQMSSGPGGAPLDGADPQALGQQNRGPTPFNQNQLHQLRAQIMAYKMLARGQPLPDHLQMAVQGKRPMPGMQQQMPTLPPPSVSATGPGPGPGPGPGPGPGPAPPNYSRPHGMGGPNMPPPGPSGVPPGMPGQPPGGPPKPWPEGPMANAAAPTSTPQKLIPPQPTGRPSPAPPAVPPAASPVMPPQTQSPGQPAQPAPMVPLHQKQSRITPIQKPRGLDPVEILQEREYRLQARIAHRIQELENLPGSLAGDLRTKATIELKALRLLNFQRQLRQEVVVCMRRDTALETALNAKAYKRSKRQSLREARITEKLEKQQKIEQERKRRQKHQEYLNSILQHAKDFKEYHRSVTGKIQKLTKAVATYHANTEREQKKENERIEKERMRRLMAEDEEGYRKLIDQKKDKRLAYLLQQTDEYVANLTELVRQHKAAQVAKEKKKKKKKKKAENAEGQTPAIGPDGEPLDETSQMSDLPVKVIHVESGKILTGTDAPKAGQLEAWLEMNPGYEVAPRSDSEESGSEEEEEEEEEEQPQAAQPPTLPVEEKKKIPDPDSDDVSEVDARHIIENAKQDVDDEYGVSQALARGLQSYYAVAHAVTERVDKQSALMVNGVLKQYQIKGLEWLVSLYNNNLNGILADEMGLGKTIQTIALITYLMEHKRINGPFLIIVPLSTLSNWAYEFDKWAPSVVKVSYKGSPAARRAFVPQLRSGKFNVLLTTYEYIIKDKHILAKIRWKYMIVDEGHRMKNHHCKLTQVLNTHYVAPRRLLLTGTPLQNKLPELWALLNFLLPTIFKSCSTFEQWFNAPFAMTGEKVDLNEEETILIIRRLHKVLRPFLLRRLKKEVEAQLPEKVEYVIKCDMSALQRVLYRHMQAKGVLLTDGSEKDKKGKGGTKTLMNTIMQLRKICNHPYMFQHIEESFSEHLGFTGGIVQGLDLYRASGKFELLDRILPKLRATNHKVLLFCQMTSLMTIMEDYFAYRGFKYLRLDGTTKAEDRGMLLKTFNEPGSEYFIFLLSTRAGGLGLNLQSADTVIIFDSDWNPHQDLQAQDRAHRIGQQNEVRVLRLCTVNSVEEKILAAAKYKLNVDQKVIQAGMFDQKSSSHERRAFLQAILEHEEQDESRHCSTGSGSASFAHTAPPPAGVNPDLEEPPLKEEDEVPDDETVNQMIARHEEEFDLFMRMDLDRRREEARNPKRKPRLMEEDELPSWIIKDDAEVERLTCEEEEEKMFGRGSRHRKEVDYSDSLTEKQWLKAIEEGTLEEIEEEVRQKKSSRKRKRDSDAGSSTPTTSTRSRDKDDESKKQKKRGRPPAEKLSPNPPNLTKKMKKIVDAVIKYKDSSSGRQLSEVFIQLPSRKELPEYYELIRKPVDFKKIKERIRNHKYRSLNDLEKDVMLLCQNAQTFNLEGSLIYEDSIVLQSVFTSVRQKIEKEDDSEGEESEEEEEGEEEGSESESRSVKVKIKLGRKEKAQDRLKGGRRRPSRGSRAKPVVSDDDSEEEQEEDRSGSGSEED

Compound	IC50 [1, 3] [nM]	Ratio* ([1]; ratio of BRG1 IC50 to BRM IC50)	IC50 [2, 3] [nM]	IC50 ([1]; ADP-Glo ATPase assay) [nM]	Ratio* ([1]; ratio BRG1 IC50 / BRM IC50)	IC50 ([2]; ADP-Glo ATPase assay) [nM]
O=C(NCc1cc2nc(N3CCCC4CCCC43)ccc2cn1)c1ccc2c(c1)S(=O)(=O)CCOC2 (stereo not drawn) [Compound 652]	443	7.21	3190			
COc1ccc2c(c1)CCN2c1ccc2cnc(CNC(=O)c3ccc4c(c3)S(=O)(=O)CCOC4)cc2n1 [Compound 653]	230	7.47	1720			
O=C(NCc1cc2nc(N3CCc4ccc(Cl)cc43)ccc2cn1)c1ccc2c(c1)S(=O)(=O)CCOC2 [Compound 654]	104	24.78	2570			
C[C@@H]1CN(c2cccc(-c3ccc4cnc(CNC(=O)c5ccc6c(c5)S(=O)(=O)CCOC6(C)C)cc4n3)n2)C[C@H](C)O1 [Compound 655]	249	15.80	3930			
Cc1cnc2c(c1)CCN2c1ccc2cnc(CNC(=O)c3ccc4c(c3)S(=O)(=O)CCOC4)cc2n1 [Compound 656]	12.2	10.50	128			
Cc1cc2c(-c3ccc4cnc(CNC(=O)c5ccc6c(c5)S(=O)(=O)CCOC6)cc4n3)cncc2n1C [Compound 657]	35.3	5.73	202			
CCc1ccc2c(n1)N(c1ccc3cnc(CNC(=O)c4ccc5c(c4)S(=O)(=O)CCOC5)cc3n1)CCO2 [Compound 658]	7	48.50	342			
O=C(NCc1cc2nc(N3CCCc4ccc(C5CCCO5)nc43)ccc2cn1)c1ccc2c(c1)S(=O)(=O)CCOC2 (stereo not drawn) [Compound 659]	42.7	24.28	1040			
COCc1cc2c(nc1Cl)N(c1ccc3cnc(CNC(=O)c4ccc5c(c4)S(=O)(=O)CCOC5)cc3n1)CCC2 [Compound 660]	7.2	8.17	59			
C[C@@H]1Cc2ccc(-c3ccc4cnc(CNC(=O)c5ccc6c(c5)S(=O)(=O)CCOC6)cc4n3)nc2N(C)C1 [Compound 661]	43.9	6.86	301			
C[C@H]1Cc2ccc(-c3ccc4cnc(CNC(=O)c5ccc6c(c5)S(=O)(=O)CCOC6)cc4n3)nc2N(C)C1 [Compound 662]	36.7	4.71	173			
CCc1cnc2c(c1)OCCN2c1ccc2cnc(CNC(=O)c3ccc4c(c3)S(=O)(=O)CCOC4)cc2n1 [Compound 665]	6.4	13.54	86.8			
O=C(NCc1cc2nc(N3CCCc4cc(N5CCC5)cnc43)ccc2cn1)c1ccc2c(c1)S(=O)(=O)CCOC2 [Compound 666]	24.2	11.06	268			
C[C@@H]1CN(c2cccc(-c3ccc4cnc(CNC(=O)c5ccc6c(c5)S(=O)(=O)[C@@H](C)CN6C5CC5)cc4n3)n2)C[C@H](C)O1 [Compound 667]	39	13.24	517			
CO[C@@H]1C[C@@H]1N(C)c1cccc(-c2ccc3cnc(CNC(=O)c4ccc5c(c4)S(=O)(=O)[C@@H](C)COC5)cc3n2)n1 [Compound 668]	8.4	8.70	73.4			
CO[C@H]1C[C@H]1N(C)c1cccc(-c2ccc3cnc(CNC(=O)c4ccc5c(c4)S(=O)(=O)[C@@H](C)COC5)cc3n2)n1 [Compound 669]	17.1	18.96	324			
CO[C@H]1C[C@@H]1N(C)c1cccc(-c2ccc3cnc(CNC(=O)c4ccc5c(c4)S(=O)(=O)[C@@H](C)COC5)cc3n2)n1 [Compound 670]	10.1	8.79	88.3			
CO[C@@H]1C[C@H]1N(C)c1cccc(-c2ccc3cnc(CNC(=O)c4ccc5c(c4)S(=O)(=O)[C@@H](C)COC5)cc3n2)n1 [Compound 672]	15.2	13.70	209			
COCCn1cc2c(-c3ccc4cnc(CNC(=O)c5ccc6c(c5)S(=O)(=O)CCOC6)cc4n3)cccc2n1 [Compound 673]	568	8.79	4990			
O=C(NCc1cc2nc(N3CCCc4ccc(OCC5COC5)cc43)ccc2cn1)c1ccc2c(c1)S(=O)(=O)CCOC2 [Compound 676]	3	11.70	35.5			
O=C(NCc1cc2nc(N3CCCc4c(OC5CC5)ccnc43)ccc2cn1)c1ccc2c(c1)S(=O)(=O)CCOC2 [Compound 677]	3.8	9.28	35.7			
O=C(NCc1cc2nc(-c3ccc4c(n3)C(F)(F)CC4)ccc2cn1)c1ccc2c(c1)S(=O)(=O)CCOC2 [Compound 678]	54.5	10.07	549			

Compound	IC50 [1, 3] [nM]	Ratio* ([1]; ratio of BRG1 IC50 to BRM IC50)	IC50 [2, 3] [nM]	IC50 ([1]; ADP-Glo ATPase assay) [nM]	Ratio* ([1]; ratio BRG1 IC50 / BRM IC50)	IC50 ([2]; ADP-Glo ATPase assay) [nM]
Cc1ccc2c(n1)N(c1ccc3cnc(CNC(=O)c4ccc5c(c4)S(=O)(=O)CCOC5)cc3c1)CCO2 [Compound 679]	18.9	22.41	423			
Cc1ccc2c(n1)N(c1ccc3cnc(CNC(=O)c4ccc5c(c4)S(=O)(=O)[C@@H](C)COC5)cc3c1)CCO2 [Compound 680]	32.7	29.69	969			
Cc1ccnc2c1N(C)CCN2c1ccc2cnc(CNC(=O)c3ccc4c(c3)S(=O)(=O)CCOC4)cc2n1 [Compound 681]	33	9.53	315			
CC(F)(F)c1ccc2c(c1)N(c1ccc3cnc(CNC(=O)c4ccc5c(c4)S(=O)(=O)CCOC5)cc3n1)CCO2 [Compound 682]	10.3	15.88	164			
COc1cc2c(nc1C1CC1)N(c1ccc3cnc(CNC(=O)c4ccc5c(c4)S(=O)(=O)CCOC5)cc3n1)CCC2 [Compound 683]	76.3	10.42	795			
O=C(NCc1cc2nc(N3CCN(C4CC4)c4cccnc43)ccc2cn1)c1ccc2c(c1)S(=O)(=O)CCOC2 [Compound 686]	14.3	13.91	199			
C[C@@H]1CN(c2cccc(-c3ccc4cnc(CNC(=O)c5ccc6c(c5)S(=O)(=O)[C@@H](C)CO6)cc4n3)n2)C[C@H](C)O1 [Compound 687]	19.7	18.34	360			
Cn1cnc2c1CCCN2c1ccc2cnc(CNC(=O)c3ccc4c(c3)S(=O)(=O)CCOC4)cc2n1 [Compound 688]	257	6.65	1710			
O=C(NCc1cc2nc(N3CCCc4ccc([C@@H]5CC5(F)F)nc43)ccc2cn1)c1ccc2c(c1)S(=O)(=O)CCOC2 [Compound 689]	40.2	21.94	882			
O=C(NCc1cc2nc(N3CCCc4ccc([C@H]5CC5(F)F)nc43)ccc2cn1)c1ccc2c(c1)S(=O)(=O)CCOC2 [Compound 690]	23.5	54.81	1290			
O=C(NCc1cc2nc(N3CCOc4cc(Cl)cnc43)ccc2cn1)c1cc(F)c2c(c1)S(=O)(=O)CCOC2 [Compound 691]	9.5	16.64	159			
O=C(NCc1cc2nc(N3CCCc4ccc(OC5COC5)cc43)ccc2cn1)c1ccc2c(c1)S(=O)(=O)CCOC2 [Compound 692]	6	14.09	84.9			
C[C@H]1CCN(C)c2nc(-c3ccc4cnc(CNC(=O)c5ccc6c(c5)S(=O)(=O)CCOC6)cc4n3)ccc21 [Compound 694]	34.2	8.38	287			
C[C@@H]1CCN(C)c2nc(-c3ccc4cnc(CNC(=O)c5ccc6c(c5)S(=O)(=O)CCOC6)cc4n3)ccc21 [Compound 695]	43.3	9.72	420			
COC[C@@H](C)Oc1ccc2c(c1)N(c1ccc3cnc(CNC(=O)c4ccc5c(c4)S(=O)(=O)CCOC5)cc3n1)CCC2 [Compound 696]	6.8	18.76	128			
COC[C@H](C)Oc1ccc2c(c1)N(c1ccc3cnc(CNC(=O)c4ccc5c(c4)S(=O)(=O)CCOC5)cc3n1)CCC2 [Compound 697]	4.9	7.66	37.9			
O=C(NCc1cc2nc(N3CCOc4cc(Cl)c(C5CC5)nc43)ccc2cn1)c1ccc2c(c1)S(=O)(=O)CCOC2 [Compound 698]	193	24.47	4720			
CN1CCC2(c3cccc(-c4ccc5cnc(CNC(=O)c6ccc7c(c6)S(=O)(=O)CCOC7)cc5n4)n3)CC2C1 (stereo not drawn) [Compound 699]	275	8.04	2210			
O=C(NCc1cc2nc(N3CCOc4ccc([C@H]5CC5(F)F)nc43)ccc2cn1)c1ccc2c(c1)S(=O)(=O)CCOC2 [Compound 700]	14.5	52.11	758			
COCCn1cc2cccc(-c3ccc4cnc(CNC(=O)c5ccc6c(c5)S(=O)(=O)CCOC6)cc4n3)c2n1 [Compound 701]	87.2	9.96	868			
O=C(NCc1cc2nc(N3CCOc4ccc([C@@H]5CC5(F)F)nc43)ccc2cn1)c1ccc2c(c1)S(=O)(=O)CCOC2 [Compound 702]	10.2	93.83	960			
COc1cnc2c(c1)CCN2c1ccc2cnc(CNC(=O)c3ccc4c(c3)S(=O)(=O)CCOC4)cc2n1 [Compound 703]				36.8	8.10	298
